Experimental data: patent US11053251B2, “GPR35 modulators” (Prometheus Biosciences, Inc., priority 2019, dated 2021)

Molecular target: Human GPR35 (Homo sapiens, UniProt Q9HC97, S294R)
Assay: Alternative Beta-Arrestin Assay (JumpIn 294R Tango U2OS cells, LiveBLAzer-FRET B/G)
Type: cell-based
Conditions: Human GPR35 expressing JumpIn 294R Tango U2OS cells, 5 hours treatment
Method: Human GPR35 expressing JumpIn (Thermo Fisher) 294R Tango U2OS cells were plated in 384-well format in clear bottom plates at a cell density of 10,000 cells/well and allowed to grow overnight. The next day, cells were treated with serially diluted test compounds for 5 hours. LiveBLAzer-FRET B/G (CCF4-AM) detection reagents were then added and cells were allowed to incubate for 2 hours before reading plates on a BioTek Cytation 5 plate reader. Zaprinast was used as a positive control for dose-response curves. In order to determine EC50 values, data w ere fit to a four-parameter dose-response curves.

Chain of Human GPR35 (Q9HC97 whole entry S294R): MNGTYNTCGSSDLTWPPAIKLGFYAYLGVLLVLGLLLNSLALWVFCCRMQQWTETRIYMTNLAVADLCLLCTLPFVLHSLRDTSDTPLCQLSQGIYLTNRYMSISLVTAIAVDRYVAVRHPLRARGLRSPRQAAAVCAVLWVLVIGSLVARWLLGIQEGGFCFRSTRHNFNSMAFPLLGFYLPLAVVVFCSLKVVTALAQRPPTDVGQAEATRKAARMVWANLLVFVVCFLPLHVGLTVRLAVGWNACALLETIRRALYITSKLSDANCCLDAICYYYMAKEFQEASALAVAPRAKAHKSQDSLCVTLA

Compound	EC50 [µM]
O=c1[nH]c(-c2ccc(-c3nnn[nH]3)cc2O)nc2[nH]nnc12 [Compound 147, 5-(2-hydroxy-4-(1H-tetrazol-5-yl)phenyl)-3,6-dihydro-7H-[1,2,3]triazolo[4,5-d]pyrimidin-7-one]	≤ 10
O=C(O)c1ccc(-c2ccc(-c3nc4[nH]nnc4c(=O)[nH]3)c(OC3CCCC3)c2)cc1O [Compound 201, 3′-(Cyclopentyloxy)-3-hydroxy-4′-(7-oxo-6,7-dihydro-3H-[1,2,3]triazolo[4,5-d]pyrimidin-5-yl)-[1,1′-biphenyl]-4-carboxylic acid]	≤ 10
CCOc1cc(-c2ccc(NCC(=O)O)cc2)ccc1-c1nc2[nH]nnc2c(=O)[nH]1 [Compound 215, (3′-Ethoxy-4′-(7-oxo-6,7-dihydro-3H-[1,2,3]triazolo[4,5-d]pyrimidin-5-yl)-[1,1′-biphenyl]-4-yl)glycine]	≤ 10
CCOc1cc(-c2nc(C(=O)O)cs2)ccc1-c1nc2[nH]nnc2c(=O)[nH]1 [Compound 187, 2-(3-ethoxy-4-(7-oxo-6,7-dihydro-3H-[1,2,3]triazolo[4,5-d]pyrimidin-5-yl)phenyl)thiazole-4-carboxylic acid]	≤ 10
CCOc1cc(-c2cc(OCC(=O)O)cc(C(=O)O)c2)ccc1-c1nc2[nH]nnc2c(=O)[nH]1 [Compound 219, 5-(Carboxymethoxy)-3′-ethoxy-4′-(7-oxo-6,7-dihydro-3H-[1,2,3]triazolo[4,5-d]pyrimidin-5-yl)-[1,1′-biphenyl]-3-carboxylic acid]	≤ 10
CCOc1cc(-c2cc(O)cc(NCC(=O)O)c2)ccc1-c1nc2[nH]nnc2c(=O)[nH]1 [Compound 223, (3′-Ethoxy-5-hydroxy-4′-(7-oxo-6,7-dihydro-3H-[1,2,3]triazolo[4,5-d]pyrimidin-5-yl)-[1,1′-biphenyl]-3-yl)glycine]	≤ 10
CCOc1cc(-c2ccc(C(=O)O)c(O)c2)ccc1-c1nc2[nH]nnc2c(=O)[nH]1 [Compound 208, 3′-Ethoxy-3-hydroxy-4′-(7-oxo-6,7-dihydro-3H-[1,2,3]triazolo[4,5-d]pyrimidin-5-yl)-[1,1′-biphenyl]-4-carboxylic acid]	≤ 10
CCOc1cc(-c2cc(C)cc(C(=O)O)c2)ccc1-c1nc2[nH]nnc2c(=O)[nH]1 [Compound 185, 3′-ethoxy-5-methyl-4′-(7-oxo-6,7-dihydro-3H-[1,2,3]triazolo[4,5-d]pyrimidin-5-yl)-[1,1′-biphenyl]-3-carboxylic acid]	≤ 10
CCOc1cc(-c2cccc(OC(C)(C)C(=O)O)c2)ccc1-c1nc2[nH]nnc2c(=O)[nH]1 [Compound 213, 2-((3′-Ethoxy-4′-(7-oxo-6,7-dihydro-3H-[1,2,3]triazolo[4,5-d]pyrimidin-5-yl)-[1,1′-biphenyl]-3-yl)oxy)-2-methylpropanoic acid]	≤ 10
CCOc1cc(-c2cccc(NCC(=O)O)c2)ccc1-c1nc2[nH]nnc2c(=O)[nH]1 [Compound 214, (3′-Ethoxy-4′-(7-oxo-6,7-dihydro-3H-[1,2,3]triazolo[4,5-d]pyrimidin-5-yl)-[1,1′-biphenyl]-3-yl)glycine]	≤ 10
CCOc1cc(-c2ccc(NC(C)=O)c(C(=O)O)c2)ccc1-c1nc2[nH]nnc2c(=O)[nH]1 [Compound 184, 4-acetamido-3′-ethoxy-4′-(7-oxo-6,7-dihydro-3H-[1,2,3]triazolo[4,5-d]pyrimidin-5-yl)-[1,1′-biphenyl]-3-carboxylic acid]	≤ 10
CCOc1cc(-c2ccc(C(=O)O)o2)ccc1-c1nc2[nH]nnc2c(=O)[nH]1 [Compound 189, 5-(3-ethoxy-4-(7-oxo-6,7-dihydro-3H-[1,2,3]triazolo[4,5-d]pyrimidin-5-yl)phenyl)furan-2-carboxylic acid]	≤ 10

Other lines, results leading:

EC50 [µM]	Compound
≤ 10	CC(C)OC(=O)COc1cccc(-c2ccc(-c3nc4[nH]nnc4c(=O)[nH]3)c(OC3CCCC3)c2)c1 [Compound 271, isopropyl 2-((3′-(cyclopentyloxy)-4′-(7-oxo-6,7-dihydro-3H-[1,2,3]triazolo[4,5-d]pyrimidin-5-yl)-[1,1′-biphenyl]-3-yl)oxy)acetate]
≤ 10	CCOc1cc(-c2ccc(OCCN3CCCC3)c(/C=C/C(=O)O)c2)ccc1-c1nc2[nH]nnc2c(=O)[nH]1 [Compound 317, (E)-3-(3′-ethoxy-4′-(7-oxo-6,7-dihydro-3H-[1,2,3]triazolo[4,5-d]pyrimidin-5-yl)-4-(2-(pyrrolidin-1-yl)ethoxy)-[1,1′-biphenyl]-3-yl)acrylic acid]
≤ 10	CCOc1cc(-c2ccc(OC(C)C)c(/C=C(\C)C(=O)O)c2)ccc1-c1nc2[nH]nnc2c(=O)[nH]1 [Compound 301, (E)-3-(3′-ethoxy-4-isopropoxy-4′-(7-oxo-6,7-dihydro-3H-[1,2,3]triazolo[4,5-d]pyrimidin-5-yl)-[1,1′-biphenyl]-3-yl)-2-methylacrylic acid]
≤ 10	CCOc1cc(-c2cccc([C@H]3C[C@H]3C(=O)O)c2)ccc1-c1nc2[nH]nnc2c(=O)[nH]1 (single isomer, unassigned) [Compound 307, Cis-2-(3′-ethoxy-4′-(7-oxo-6,7-dihydro-3H-[1,2,3]triazolo[4,5-d]pyrimidin-5-yl)-[1,1′-biphenyl]-3-yl)cyclopropane-1-carboxylic acid]
≤ 10	CCNc1cc(-c2nc3[nH]nnc3c(=O)[nH]2)ccc1-c1ccc(C(=O)O)cc1 [Compound 292, 2′-(ethylamino)-4′-(7-oxo-6,7-dihydro-3H-[1,2,3]triazolo[4,5-d]pyrimidin-5-yl)-[1,1′-biphenyl]-4-carboxylic acid]
≤ 10	CCOc1cc(-c2ccc(OCCN(C)C)c(CCC(=O)O)c2)ccc1-c1nc2[nH]nnc2c(=O)[nH]1 [Compound 320, 3-(4-(2-(dimethylamino)ethoxy)-3′-ethoxy-4′-(7-oxo-6,7-dihydro-3H-[1,2,3]triazolo[4,5-d]pyrimidin-5-yl)-[1,1′-biphenyl]-3-yl)propanoic acid]
≤ 10	CCOc1cc(-c2cccc(OC(CC)C(=O)O)c2)ccc1-c1nc2[nH]nnc2c(=O)[nH]1 (centres unmarked) [Compound 247, 2-((3′-ethoxy-4′-(7-oxo-6,7-dihydro-3H-[1,2,3]triazolo[4,5-d]pyrimidin-5-yl)-[1,1′-biphenyl]-3-yl)oxy)butanoic acid]
≤ 10	CCOc1cc(-c2cc(C)cc(O[C@@H](C)C(=O)O)c2)ccc1-c1nc2[nH]nnc2c(=O)[nH]1 [Compound 267, (S)-2-((3′-ethoxy-5-methyl-4′-(7-oxo-6,7-dihydro-3H-[1,2,3]triazolo[4,5-d]pyrimidin-5-yl)-[1,1′-biphenyl]-3-yl)oxy)propanoic acid]
≤ 10	CCOC(=O)COc1cccc(-c2ccc(-c3nc4[nH]nnc4c(=O)[nH]3)c(OC3CCCC3)c2)c1 [Compound 270, ethyl 2-((3′-(cyclopentyloxy)-4′-(7-oxo-6,7-dihydro-3H-[1,2,3]triazolo[4,5-d]pyrimidin-5-yl)-[1,1′-biphenyl]-3-yl)oxy)acetate]
≤ 10	O=c1[nH]c(-c2ccc(-c3ccc(-c4nnn[nH]4)cc3)cc2OC2CCCC2)nc2[nH]nnc12 [Compound 273, 5-(3-(cyclopentyloxy)-4′-(1H-tetrazol-5-yl)-[1,1′-biphenyl]-4-yl)-3,6-dihydro-7H-[1,2,3]triazolo[4,5-d]pyrimidin-7-one]
≤ 10	CCOc1cc(-c2ccc(O)c(CCC(=O)O)c2)ccc1-c1nc2[nH]nnc2c(=O)[nH]1 [Compound 309, 3-(3′-ethoxy-4-hydroxy-4′-(7-oxo-6,7-dihydro-3H-[1,2,3]triazolo[4,5-d]pyrimidin-5-yl)-[1,1′-biphenyl]-3-yl)propanoic acid]
≤ 10	CCOc1cc(-c2cccc(OC(C(=O)O)C(C)C)c2)ccc1-c1nc2[nH]nnc2c(=O)[nH]1 (centres unmarked) [Compound 269, 2-((3′-ethoxy-4′-(7-oxo-6,7-dihydro-3H-[1,2,3]triazolo[4,5-d]pyrimidin-5-yl)-[1,1′-biphenyl]-3-yl)oxy)-3-methylbutanoic acid]
≤ 10	CCOC(=O)C(Oc1cccc(-c2ccc(-c3nc4[nH]nnc4c(=O)[nH]3)c(OCC)c2)c1)C(C)C (centres unmarked) [Compound 268, ethyl 2-((3′-ethoxy-4′-(7-oxo-6,7-dihydro-3H-[1,2,3]triazolo[4,5-d]pyrimidin-5-yl)-[1,1′-biphenyl]-3-yl)oxy)-3-methylbutanoate]

Same assay, conditions: at 5.6 μM; Table 2

% inhibition at 5.6 μM [% inhibition at]	Compound
30	CCOC(=O)C(C)(C)Cc1cccc(-c2ccc(-c3nc4[nH]nnc4c(=O)[nH]3)c(OCC)c2)c1 [Compound 242, ethyl 3-(3′-ethoxy-4′-(7-oxo-6,7-dihydro-3H-[1,2,3]triazolo[4,5-d]pyrimidin-5-yl)-[1,1′-biphenyl]-3-yl)-2,2-dimethylpropanoate]

Same assay, conditions: at 50 μM; Table 2

% inhibition at 50 μM [% inhibition at]	Compound
16	CN(C)CCOc1cc(-c2ccc(C(=O)O)cc2)ccc1-c1nc2[nH]nnc2c(=O)[nH]1 [Compound 228, 3′-(2-(Dimethylamino)ethoxy)-4′-(7-oxo-6,7-dihydro-3H-[1,2,3]triazolo[4,5-d]pyrimidin-5-yl)-[1,1′-biphenyl]-4-carboxylic acid]
12	CCOC(=O)C1(Cc2cccc(-c3ccc(-c4nc5[nH]nnc5c(=O)[nH]4)c(OCC)c3)c2)CCC1 [Compound 245, ethyl 1-((3′-ethoxy-4′-(7-oxo-6,7-dihydro-3H-[1,2,3]triazolo[4,5-d]pyrimidin-5-yl)-[1,1′-biphenyl]-3-yl)methyl)cyclobutane-1-carboxylate]

Compound	% inhibition at 50 μM [% inhibition at]
O=C(O)c1ccc(-c2ccc(-c3nc4[nH]nnc4c(=O)[nH]3)c(OCCN3CCCC3)c2)cc1 [Compound 227, 4′-(7-Oxo-6,7-dihydro-3H-[1,2,3]triazolo[4,5-d]pyrimidin-5-yl)-3′-(2-(pyrrolidin-1-yl)ethoxy)-[1,1′-biphenyl]-4-carboxylic acid]	66
